Here are results for 6 compounds from patent publication USRE37793E1, “Method and composition for inhibiting bacteria” (Winthrop University Hospital, priority 1995, dated 2002).

One assay has as its system Klebsiella pneumoniae. The assay is classed as cell-based.
Assay [1] deals with methicillin-resistant S. aureus (MRSA). Briefly: Agar diffusion, zones of inhibition. The assay is classed as cell-based, Staphylococcus aureus. Conditions: MRSA (27 isolates); discs Bi(No3)3 157 μg, BAL 186 μg, BisBAL 157/31 μg; 24 h, 37° C. (Agar diffusion results depend on both activity and mobility in agar.)
The test system of assay [2] is vancomycin-resistant enterococci (VRE). The assay is classed as cell-based.
For the next assay, the system named is Helicobacter pylori. It counts as cell-based.
The subject of assay [3] is bacteria. Briefly: Effect of cations (iron, copper) in culture medium on antibacterial activity. It counts as cell-based. Conditions: iron added to culture medium. How it is done: Oxygen tension effects were determined by agar diffusion in aerobic, microaerophilic (Candle jar), and anaerobic (GasPak) conditions. […] Other amounts and ratios were tested. Culture condition effects, such as pH or temperature were evaluated in broth mediums.
Therefore, these antagonists could be used to neutralize BisBAL when necessary.

The test system of another assay is E. coli and Salmonella. Conditions: lag time and 18 hour turbidity only marginally affected.
Assay [4] concerns V.cholerae, S.flexneri, and Y.enterocolitica.
For assay [5], the system named is bacteria. The assay is classed as cell-based.
The next assay has as its system gut flora. The experiment in a line: Effect on gut flora and fecal production. Conditions: rat, in vivo. Also on record: species or system rats.

Take `[H]/N=C(\N/C(=N/[H])NCCCCCCNC(=N)NC(=N)Nc1ccc(Cl)cc1)Nc1ccc(Cl)cc1` [CHX, chlorhexidine]: the “Effect on CPS expression” value with Klebsiella pneumoniae (even at 0.75 of the MIC) is reported as “no significant effect”.

Take bismuth nitrate [Bi(NO3)3]: the “Zones of Inhibition” value in assay [1] was 7.3 ± 2.8 mm; in [2] it was 7.3 ± 1.4 mm. In addition, the “Zone diameter of inhibition” value in the assay on Helicobacter pylori is “little or no zones of inhibition”. Besides, the “Concentration at which capsule and slime expression is inhibited” value in the assay on Klebsiella pneumoniae (subinhibitory levels) is reported as “greater than 500 μM”. In the assay with bacteria [3], the “Reversal of antibacterial effects by iron” value was “can be reversed by addition of micromolar amounts of iron”. Also, the “Bi^3+ concentration in whose presence bacteria grew well” value with E. coli and Salmonella fell in the range of 250 to 500 µM. In addition, the “Bi^3+ concentration bacteria could withstand” value in assay [4] is “up to 50 μM”.

With `O=C(O)[C@@H](S)[C@@H](S)C(=O)O` [DMSA, dimercapto-succinic acid], in the assay with bacteria [5], the “Effect of thiol-containing chelator on antibacterial properties of bismuth” value (shortened to “Effect of thiol-containing chelator”) is listed as “do not increase its antibacterial properties”.

Take `O=S(=O)(O)CC(S)CS` (stereo not drawn) [DMPS, 2,3-dimercaptopropane-1-sulfonic acid]: the “Effect of thiol-containing chelator” value with bacteria [5] is reported as “do not increase its antibacterial properties”.

`O=C([O-])c1ccccc1[O-].[Bi+3].[OH-]` [BSS]: the “Effect on gut flora” value with gut flora is reported as “does not have a significant growth-inhibiting effect”.

As to `N[C@@H](CS)C(=O)O` [cysteine], the “Effect of thiol-containing chelator” value with bacteria [5] is reported as “do not increase its antibacterial properties”.
